Publication PMC8000724, “Trans-Epithelial Transport, Metabolism, and Biological Activity Assessment of the Multi-Target Lupin Peptide [sequence] (P5) and Its Metabolite [sequence] (P5-Met)” (Nutrients, 2021)

Experiments:
PCSK9 = experiment: Western blot, PCSK9 protein level in HepG2 cells; type: cell-based, human; details: HepG2, 50 µM, 24 h, mean ± SD
Method: (§1) The HepG2 cell line was bought from ATCC (HB-8065, ATCC from LGC Standards, Milan, Italy) and was cultured in DMEM high glucose with stable L-glutamine, supplemented with 10% FBS, 100 U/mL penicillin, 100 µg/mL streptomycin (complete growth medium) with incubation at 37 °C under 5% CO2 atmosphere.
(§2) Immunoblotting experiments were performed using optimized protocol. A total of 1.5 × 10^5 HepG2 cells/well (24-well plate) were treated with 50 μM of P5 and P5-met for 24 h. After each treatment, the supernatants were collected and stored at −20°C; cells were scraped in 40 µL ice-cold lysis buffer (RIPA buffer + inhibitor cocktail + 1:100 PMSF + 1:100 Na-orthovanadate + 1:1000 β-mercaptoethanol) and transferred in ice-cold microcentrifuge tubes. […] Total proteins were quantified by the Bradford’s method and 50 μg of total proteins loaded on a pre-cast 7.5% Sodium Dodecyl Sulfate-Polyacrylamide (SDS-PAGE) gel at 130 V for 45 min. […] Target proteins, on milk or BSA blocked membrane, were detected by primary antibodies as follows: anti-SREBP-2, anti-LDLR, anti-HMGCoAR, anti-PCSK9, anti HNF1-α and anti-β-actin. Secondary antibodies conjugated with HRP and a chemiluminescent reagent were used to visualize target proteins and their signal was quantified using the Image Lab Software (Biorad, Hercules, CA, USA). […]

HMGCoAR = experiment: Western blot, HMGCoAR protein level in HepG2 cells; type: cell-based, human; details: HepG2, 50 µM, 24 h, mean ± SD
Method: as §1, §2

[1] = molecular target: T1, HMGCoAR (catalytic domain) (Homo sapiens, UniProt P04035); experiment: HMGCoAR activity assay; type: biochemical; details: 10-500 µM peptide, 37 °C, NADPH absorbance 340 nm at 0 and 10 min
T1 construct: finally the HMGCoAR (catalytic domain) (2 µL); purchased Sigma-Aldrich
T1 sequence (P04035 340-888 limits assumed): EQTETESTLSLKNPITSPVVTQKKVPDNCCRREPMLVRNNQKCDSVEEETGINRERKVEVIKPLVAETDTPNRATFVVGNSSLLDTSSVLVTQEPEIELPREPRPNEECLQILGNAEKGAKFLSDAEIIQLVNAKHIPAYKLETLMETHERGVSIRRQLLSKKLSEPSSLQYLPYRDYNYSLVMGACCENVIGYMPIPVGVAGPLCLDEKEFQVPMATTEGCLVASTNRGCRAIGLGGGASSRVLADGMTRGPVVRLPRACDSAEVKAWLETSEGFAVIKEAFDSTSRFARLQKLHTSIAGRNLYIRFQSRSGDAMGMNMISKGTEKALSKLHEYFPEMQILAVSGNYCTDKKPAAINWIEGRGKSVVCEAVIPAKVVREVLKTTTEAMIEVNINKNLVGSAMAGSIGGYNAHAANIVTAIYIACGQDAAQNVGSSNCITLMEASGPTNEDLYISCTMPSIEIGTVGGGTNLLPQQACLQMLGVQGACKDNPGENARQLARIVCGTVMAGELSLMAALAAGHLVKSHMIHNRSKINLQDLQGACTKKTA
Method: The experiments were carried out following the manufacturer instructions and optimized protocol. The assay buffer, NADPH, substrate solution, and HMGCoAR were provided in the HMGCoAR Assay Kit (Sigma Aldrich SRL, Milan, Italy). The experiments were carried out following the manufacturer instructions at 37 °C. In particular, each reaction (200 µL) was prepared adding the reagents in the following order: 1× assay buffer, a 10–500 µM doses of P5 and P5-met or vehicle (C), the NADPH (4 µL), the substrate solution (12 µL), and finally the HMGCoAR (catalytic domain) (2 µL). Subsequently, the samples were mixed and the absorbance at 340 nm read by the microplate reader Synergy H1 (Winooski, VT, USA) at time 0 and 10 min. The HMGCoAR-dependent oxidation of NADPH and the inhibition properties of peptides were measured by absorbance reduction, which is directly proportional to enzyme activity.

[2] = tested on: LDLR on HepG2 cell surface; experiment: In-cell Western (ICW) assay, LDLR localized on HepG2 cell surface; type: cell-based, human
Method: For the experiments, a total of 3 × 10^4 HepG2 cells/well were seeded in 96-well plates. The following day, cells were washed with PBS and then starved overnight (O/N) in DMEM without FBS and antibiotics. After starvation, HepG2 cells were treated with 4.0 μg/mL PCSK9-WT and 4.0 μg/mL PCSK9 + peptides P5 and/or P5-met (50 µM) and vehicle (H2O) for 2 h at 37 °C under 5% CO2 atmosphere. Subsequently, they were fixed in 4% paraformaldehyde for 20 min at room temperature (RT). Cells were washed 5 times with 100 µL of PBS/well (each wash was for 5 min at RT) and the endogenous peroxides activity quenched adding 3% H2O2 for 20 min at RT. Non-specific sites were blocked with 100 µL/well of 5% bovine serum albumin (BSA, Sigma) in PBS for 1.5 h at RT. LDLR primary antibody solution (1:3000 in 5% BSA in PBS, 25 µL/well) was incubated O/N at +4 °C. Subsequently, the primary antibody solution was discarded and each sample was washed 5 times with 100 µL/well of PBS (each wash was for 5 min at RT). Goat anti-rabbit Ig-HRP secondary antibody solution (Santa Cruz) (1:6000 in 5% BSA in PBS, 50 µL/well), was added and incubated 1 h at RT. The secondary antibody solution was washed 5 times with 100 µL/well of PBS (each wash for 5 min at RT). Freshly prepared TMB substrate (Pierce, 100 µL/well) was added and the plate was incubated at RT until desired color was developed. The reaction was stopped with 2 M H2SO4 and then the absorbance at 450 nm was measured using the microplate reader Synergy H1 (Winooski, VT, USA). After the read, cells were stained by adding 1× Janus Green stain, incubating for 5 min at RT. The dye was removed and the sample washed 5 times with water. Afterward 100 µL 0.5 M HCl for well were added and incubated for 10 min. After 10 seconds shaking, the OD at 595 nm was measured using the microplate reader Synergy H1 (Winooski, VT, USA).

SREBP-2 = experiment: Western blot, SREBP-2 protein level in HepG2 cells; type: cell-based, human; details: HepG2, 50 µM, 24 h, mean ± SD
Method: as §1, §2

In the case of H-LPKHSDAD-OH [Peptide P5-met], the “Decrease of PCSK9 protein level” value (PCSK9) is reported as 29 ± 8.1%, the “HMGCoAR protein level versus the control” value (HMGCoAR) is reported as 117.9 ± 12.1% and the IC50 [1] is reported as 175 µM. The “LDLR localized on the cellular membranes of HepG2 cells versus the control” value ([2]; HepG2, 50 µM, without added PCSK9, mean ± SD) was 145.2 ±15.2%, the “LDLR level on HepG2 cell surface restored, co-incubation with PCSK9” value ([2]; peptide 50 µM + PCSK9 4 µg/mL, 2 h, % of control, mean ± SD) was 90.1 ± 0.1% and the “SREBP-2 protein level versus the control” value (SREBP-2) was 130.4 ± 16.4%.
